Data as given in ChEMBL document CHEMBL1201862, “PubChem BioAssay data set” (2004).
Active and inactive are the calls of the source.

Columns and labels:
[1] = A Cell Based Secondary Assay To Explore Cytotoxicity of Compounds that Sensitize Mycobacterium Tuberculosis to Beta-Lactam Antibiotics.; type: functional
[2] = M. tuberculosis H37Rv growth inhibitors, H37Rv strain (AID 1626); type: functional
[3] = target: T1, Cytochrome P450 3A4 (Homo sapiens, UniProt P08684); conditions: Potency
[4] = target: Cytochrome P450 2D6 (Homo sapiens, UniProt P10635); assay: qHTS Assay for Inhibitors and Substrates of Cytochrome P450 2D6. [Related pubchem assays: 410 ]; type: ADME; conditions: read-out: Potency
[5] = target: Neurotensin receptor type 1 (Homo sapiens, UniProt P30989); type: functional;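 note: Image-based confirmatory dose-response assay measuring agonist activity at NTR1; NTR1-expressing U2OS osteosarcoma cells imaged for beta-arrestin GFP spot formation; agonist potency where compounds increase beta-arrestin recruitment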
[6] = blockers of bursicon-stimulated LGR2 cAMP reporter – cell-based, HEK293, CRE-luciferase reporter, cherry pick, set 2, dose response (AID 743343); type: functional;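 note: transfected cells were stimulated with diluted bursicon conditioned medium after compound addition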
[7] = A549 cell cytotoxicity, dose response, cytotoxicity control, plate reader, cherry-pick, antagonist series (AID 743412); type: functional, cell-based
[8] = viability of PTEN-deleted HCT116 cells – cell-based, HCT116 PTEN knockout, dose response (AID 1047); type: functional;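 note: HCT116 colon tumor cells with PTEN knocked out; cells exposed to compound for 60 hours before readout; potency for loss of cell viability measured by luminescence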
[9] = viability of HCT116 lacking mutant beta-catenin – cell-based, human colon tumor, dose response (AID 1045); type: functional;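 note: HCT116 colon tumor cells with beta catenin knocked out; cells exposed to compound for 60 hours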
[10] = blockade of melanocortin 4 receptor signaling – cell-based, plate reader, cherry pick, counter-screen for LGR2 antagonist project, dose response (AID 743444); type: functional;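 note: transfected HEK 293 cells stimulated with alpha-MSH peptide; potency of inhibitors of the alpha-MSH evoked signal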
[11] = toxicity toward HepG2 liver cells – cell-based, plate reader, cherry-pick, antagonist series, cytotoxicity control, dose response (AID 743416); type: functional
[12] = viability loss in HEK293 cells – cell-based, plate reader, cherry-picked samples, cytotoxicity control, dose response (AID 743446); type: functional
[13] = target: T2, Neuropeptide Y receptor type 1 (Homo sapiens, UniProt P25929); assay: IC50 of human NPY-Y1 blockers – cell-based, dose response (AID 1277); type: functional
T2 sequence (P25929 whole entry): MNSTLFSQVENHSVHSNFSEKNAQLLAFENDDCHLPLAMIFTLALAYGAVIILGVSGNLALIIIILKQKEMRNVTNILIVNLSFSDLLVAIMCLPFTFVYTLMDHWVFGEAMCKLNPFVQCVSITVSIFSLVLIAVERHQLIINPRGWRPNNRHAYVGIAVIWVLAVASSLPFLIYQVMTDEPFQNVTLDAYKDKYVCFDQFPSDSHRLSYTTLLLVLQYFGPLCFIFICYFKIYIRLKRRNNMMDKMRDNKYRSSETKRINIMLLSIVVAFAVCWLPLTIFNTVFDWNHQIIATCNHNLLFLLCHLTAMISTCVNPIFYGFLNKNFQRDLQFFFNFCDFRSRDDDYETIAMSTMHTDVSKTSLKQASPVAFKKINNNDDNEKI

[14] = target: T3, Neuropeptide Y receptor type 2 (Homo sapiens, UniProt P49146); assay: IC50 for human NPY-Y2 blockade – cell-based, counter-screen for NPY-Y1 antagonist project, dose response (AID 1278); type: functional
T3 sequence (P49146 whole entry): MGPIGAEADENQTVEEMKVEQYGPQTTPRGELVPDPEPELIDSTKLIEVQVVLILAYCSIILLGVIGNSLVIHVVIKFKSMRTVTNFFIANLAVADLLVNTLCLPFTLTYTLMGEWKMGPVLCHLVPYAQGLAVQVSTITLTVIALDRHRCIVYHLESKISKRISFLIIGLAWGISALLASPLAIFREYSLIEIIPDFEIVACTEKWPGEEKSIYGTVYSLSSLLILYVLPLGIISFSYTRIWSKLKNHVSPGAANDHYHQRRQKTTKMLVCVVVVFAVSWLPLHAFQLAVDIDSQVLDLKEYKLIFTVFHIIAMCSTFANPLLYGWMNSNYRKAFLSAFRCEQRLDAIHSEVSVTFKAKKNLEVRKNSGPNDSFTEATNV

[15] = target: Induced myeloid leukemia cell differentiation protein Mcl-1 (Homo sapiens, UniProt Q07820); assay: blockers of MCL1 binding to BIM peptide – biochemical, fluorescence polarization, BIM-BH3 peptide, 1536-well, dose response (AID 2217)
[16] = target: T4, Histone-lysine N-methyltransferase NSD2 (Homo sapiens, UniProt O96028); type: biochemical
T4 sequence (O96028 whole entry): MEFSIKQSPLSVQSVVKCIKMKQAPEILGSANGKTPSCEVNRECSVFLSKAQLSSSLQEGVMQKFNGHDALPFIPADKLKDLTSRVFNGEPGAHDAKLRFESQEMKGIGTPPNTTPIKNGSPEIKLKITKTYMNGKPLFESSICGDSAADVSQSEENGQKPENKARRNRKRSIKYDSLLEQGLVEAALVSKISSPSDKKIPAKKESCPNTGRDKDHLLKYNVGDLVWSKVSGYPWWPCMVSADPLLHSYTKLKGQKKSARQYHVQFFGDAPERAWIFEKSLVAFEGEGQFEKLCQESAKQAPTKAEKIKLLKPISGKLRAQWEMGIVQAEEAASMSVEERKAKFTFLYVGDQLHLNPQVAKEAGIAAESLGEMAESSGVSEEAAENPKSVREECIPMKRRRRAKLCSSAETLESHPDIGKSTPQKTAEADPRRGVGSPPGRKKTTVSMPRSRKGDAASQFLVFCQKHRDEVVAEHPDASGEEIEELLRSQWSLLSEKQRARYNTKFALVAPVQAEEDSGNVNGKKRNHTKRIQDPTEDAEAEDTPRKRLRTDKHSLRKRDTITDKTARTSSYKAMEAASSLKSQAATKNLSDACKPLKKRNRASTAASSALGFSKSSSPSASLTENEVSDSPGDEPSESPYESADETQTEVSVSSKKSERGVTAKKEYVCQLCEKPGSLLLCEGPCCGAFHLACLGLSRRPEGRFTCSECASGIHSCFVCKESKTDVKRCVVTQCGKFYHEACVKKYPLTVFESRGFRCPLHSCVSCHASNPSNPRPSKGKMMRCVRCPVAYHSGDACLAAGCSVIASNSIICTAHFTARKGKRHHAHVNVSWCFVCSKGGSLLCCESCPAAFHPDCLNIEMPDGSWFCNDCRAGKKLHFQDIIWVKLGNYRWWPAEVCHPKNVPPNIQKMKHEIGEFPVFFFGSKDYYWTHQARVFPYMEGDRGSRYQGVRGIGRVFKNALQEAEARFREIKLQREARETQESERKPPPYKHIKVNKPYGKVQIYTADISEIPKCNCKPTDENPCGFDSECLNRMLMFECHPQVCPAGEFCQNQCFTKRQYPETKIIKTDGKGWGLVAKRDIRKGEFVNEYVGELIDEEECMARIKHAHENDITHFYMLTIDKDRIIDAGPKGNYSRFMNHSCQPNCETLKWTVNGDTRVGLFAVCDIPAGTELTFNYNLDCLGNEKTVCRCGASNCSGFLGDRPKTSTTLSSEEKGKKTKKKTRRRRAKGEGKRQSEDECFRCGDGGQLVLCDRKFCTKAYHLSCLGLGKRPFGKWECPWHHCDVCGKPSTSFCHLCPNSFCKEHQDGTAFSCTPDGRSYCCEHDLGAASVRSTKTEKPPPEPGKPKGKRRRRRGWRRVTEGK

[17] = target: Bcl-2-like protein 1 (Homo sapiens, UniProt Q07817); assay: blockers of BCLXL peptide binding – biochemical, fluorescence polarization, 1536-well, selectivity assay for MCL1 inhibitor project, dose response (AID 2218)
[18] = target: Intestinal-type alkaline phosphatase (Mus musculus, UniProt P24822); assay: PubChem AID 488785; type: functional
[19] = target: Intestinal-type alkaline phosphatase (Homo sapiens, UniProt P09923); assay: inhibition of human intestinal alkaline phosphatase – biochemical, dose response (AID 488876); type: functional
[20] = target: T5, Alkaline phosphatase, tissue-nonspecific isozyme (Homo sapiens, UniProt P05186); assay: TNAP enzyme inhibition by screening hits, dose response, selectivity assay for mouse IAP inhibitor project, biochemical, human TNAP, uHTS hits (AID 488906); type: functional
T5 sequence (P05186 whole entry): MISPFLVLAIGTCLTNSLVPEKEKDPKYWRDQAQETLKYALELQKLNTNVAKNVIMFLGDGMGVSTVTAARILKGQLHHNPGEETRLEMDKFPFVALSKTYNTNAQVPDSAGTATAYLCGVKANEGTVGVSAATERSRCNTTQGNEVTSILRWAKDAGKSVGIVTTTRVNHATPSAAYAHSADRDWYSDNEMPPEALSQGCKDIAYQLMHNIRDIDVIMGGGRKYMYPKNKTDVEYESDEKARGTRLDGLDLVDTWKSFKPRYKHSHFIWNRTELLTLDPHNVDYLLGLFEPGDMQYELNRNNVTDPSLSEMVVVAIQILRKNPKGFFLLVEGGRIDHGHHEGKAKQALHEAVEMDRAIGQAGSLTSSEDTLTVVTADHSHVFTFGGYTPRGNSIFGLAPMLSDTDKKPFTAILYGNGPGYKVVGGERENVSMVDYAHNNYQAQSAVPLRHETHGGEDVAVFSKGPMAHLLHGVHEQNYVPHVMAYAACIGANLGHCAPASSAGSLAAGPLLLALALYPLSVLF

[21] = target: NAD-dependent protein deacylase sirtuin-5, mitochondrial (Homo sapiens, UniProt Q9NXA8); assay: sirtuin-5 deacylation blockers, concentration series – biochemical, fluorescence imaging, cherry-pick, set 5, dose response (AID 720591);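 note: desuccinylation of succinyl peptide AMC substrate read as fluorescence after trypsin release; potency of inhibitors that lower fluorescence and may act on trypsin instead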
[22] = target: T6, Carboxy-terminal domain RNA polymerase II polypeptide A small phosphatase 1 (Homo sapiens, UniProt Q9GZU7); assay: CTDSP1 inhibitors, concentration-response, biochemical, absorbance readout, ultra-high-throughput screen actives (AID 540297); type: functional
T6 sequence (Q9GZU7 whole entry): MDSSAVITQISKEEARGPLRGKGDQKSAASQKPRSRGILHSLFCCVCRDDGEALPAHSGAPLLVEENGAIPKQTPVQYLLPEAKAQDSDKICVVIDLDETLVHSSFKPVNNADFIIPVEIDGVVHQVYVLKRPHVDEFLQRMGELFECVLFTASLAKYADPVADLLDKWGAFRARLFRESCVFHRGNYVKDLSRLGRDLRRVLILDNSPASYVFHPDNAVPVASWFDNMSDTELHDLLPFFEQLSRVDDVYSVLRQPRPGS

[23] = target: Eukaryotic translation initiation factor 4E (Mus musculus, UniProt P63073); assay: blockers of eIF4G binding by eIF4E – biochemical, TR-FRET, dose response (AID 855); type: functional;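 note: potency for disrupting eIF4E binding to eIF4GI seen as loss of FRET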
[24] = target: Cytochrome P450 2C19 (Homo sapiens, UniProt P33261); assay: Cytochrome panel assay with activity outcomes. Panel member name: p450-cyp2c19 Compounds with AC50 equal or less than 10 uM are considered active; type: functional; conditions: read-out: AC50
[25] = target: T7, Protein skinhead-1 (Caenorhabditis elegans, UniProt P34707); type: functional
T7 sequence (P34707 whole entry): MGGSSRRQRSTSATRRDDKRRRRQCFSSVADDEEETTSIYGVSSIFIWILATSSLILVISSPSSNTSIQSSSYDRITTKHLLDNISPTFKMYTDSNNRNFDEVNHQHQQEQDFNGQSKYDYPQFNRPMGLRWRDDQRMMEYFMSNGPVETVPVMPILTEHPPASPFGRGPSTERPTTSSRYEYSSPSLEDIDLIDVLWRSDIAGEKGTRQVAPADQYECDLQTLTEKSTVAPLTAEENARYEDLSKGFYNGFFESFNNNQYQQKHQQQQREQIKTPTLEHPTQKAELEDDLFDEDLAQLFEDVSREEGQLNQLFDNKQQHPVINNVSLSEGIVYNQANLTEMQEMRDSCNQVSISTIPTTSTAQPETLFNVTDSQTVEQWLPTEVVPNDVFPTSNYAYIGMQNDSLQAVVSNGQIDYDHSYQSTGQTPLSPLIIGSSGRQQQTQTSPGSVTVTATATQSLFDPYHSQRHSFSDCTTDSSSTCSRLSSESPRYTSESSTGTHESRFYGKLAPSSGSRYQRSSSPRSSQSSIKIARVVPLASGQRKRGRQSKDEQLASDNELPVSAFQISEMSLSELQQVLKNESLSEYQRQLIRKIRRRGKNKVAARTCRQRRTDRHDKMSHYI

[26] = target: Cytochrome P450 2C9 (Homo sapiens, UniProt P11712)
[27] = target: T1, Cytochrome P450 3A4
[28] = target: Voltage-gated inwardly rectifying potassium channel KCNH2 (Homo sapiens, UniProt Q12809); assay: concentration-dependent hERG rescue from blockers – cell-based, thallium flux, dose response (AID 2121); type: ADME
Sequence of Voltage-gated inwardly rectifying potassium channel KCNH2 (Q12809 whole entry): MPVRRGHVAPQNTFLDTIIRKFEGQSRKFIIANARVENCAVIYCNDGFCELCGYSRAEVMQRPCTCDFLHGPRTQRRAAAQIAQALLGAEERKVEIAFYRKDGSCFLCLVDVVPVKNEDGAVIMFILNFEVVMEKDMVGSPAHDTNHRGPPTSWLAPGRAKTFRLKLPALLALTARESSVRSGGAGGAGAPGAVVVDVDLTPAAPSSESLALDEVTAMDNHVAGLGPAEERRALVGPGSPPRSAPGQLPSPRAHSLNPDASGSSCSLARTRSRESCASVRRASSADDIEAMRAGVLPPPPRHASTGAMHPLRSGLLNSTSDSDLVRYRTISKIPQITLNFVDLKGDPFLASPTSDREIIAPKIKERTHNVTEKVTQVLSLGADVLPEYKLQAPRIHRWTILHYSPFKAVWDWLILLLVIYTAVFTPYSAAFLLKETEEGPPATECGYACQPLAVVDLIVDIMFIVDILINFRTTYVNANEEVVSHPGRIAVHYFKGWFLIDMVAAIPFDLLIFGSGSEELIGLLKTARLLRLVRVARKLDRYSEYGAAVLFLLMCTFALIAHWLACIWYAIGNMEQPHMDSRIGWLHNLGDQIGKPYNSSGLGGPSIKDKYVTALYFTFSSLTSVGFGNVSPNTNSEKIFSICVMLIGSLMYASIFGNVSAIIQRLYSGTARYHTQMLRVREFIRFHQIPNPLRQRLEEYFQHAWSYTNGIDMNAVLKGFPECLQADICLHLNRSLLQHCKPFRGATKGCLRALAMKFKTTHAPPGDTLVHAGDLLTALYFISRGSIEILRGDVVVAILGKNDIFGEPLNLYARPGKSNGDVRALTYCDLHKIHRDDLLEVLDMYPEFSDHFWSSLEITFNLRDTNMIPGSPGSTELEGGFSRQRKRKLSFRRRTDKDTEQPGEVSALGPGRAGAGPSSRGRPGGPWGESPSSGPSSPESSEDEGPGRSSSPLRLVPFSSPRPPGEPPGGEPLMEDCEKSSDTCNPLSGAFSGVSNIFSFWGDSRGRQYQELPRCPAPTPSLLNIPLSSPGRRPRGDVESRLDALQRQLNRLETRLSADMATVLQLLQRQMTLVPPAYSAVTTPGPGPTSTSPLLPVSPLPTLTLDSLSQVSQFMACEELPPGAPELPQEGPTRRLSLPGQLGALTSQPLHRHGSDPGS

Sequence of Induced myeloid leukemia cell differentiation protein Mcl-1 (Q07820 whole entry): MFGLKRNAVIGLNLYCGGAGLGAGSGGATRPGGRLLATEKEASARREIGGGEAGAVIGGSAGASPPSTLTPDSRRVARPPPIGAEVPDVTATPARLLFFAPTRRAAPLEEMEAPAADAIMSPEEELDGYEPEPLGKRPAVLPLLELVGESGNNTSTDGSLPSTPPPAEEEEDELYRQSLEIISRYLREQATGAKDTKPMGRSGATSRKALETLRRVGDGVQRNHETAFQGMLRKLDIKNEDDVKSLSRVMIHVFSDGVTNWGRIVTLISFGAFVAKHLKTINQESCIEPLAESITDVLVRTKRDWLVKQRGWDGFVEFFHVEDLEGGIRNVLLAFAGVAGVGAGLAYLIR
Sequence of Bcl-2-like protein 1 (Q07817 whole entry): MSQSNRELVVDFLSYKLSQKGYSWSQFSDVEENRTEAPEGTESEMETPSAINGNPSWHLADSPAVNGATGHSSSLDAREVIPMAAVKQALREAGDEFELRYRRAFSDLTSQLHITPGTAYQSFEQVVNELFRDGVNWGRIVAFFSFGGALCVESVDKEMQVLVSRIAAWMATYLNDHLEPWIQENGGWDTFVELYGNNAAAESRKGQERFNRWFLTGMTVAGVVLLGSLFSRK
Sequence of Intestinal-type alkaline phosphatase (Mus musculus, UniProt P24822) (P24822 whole entry): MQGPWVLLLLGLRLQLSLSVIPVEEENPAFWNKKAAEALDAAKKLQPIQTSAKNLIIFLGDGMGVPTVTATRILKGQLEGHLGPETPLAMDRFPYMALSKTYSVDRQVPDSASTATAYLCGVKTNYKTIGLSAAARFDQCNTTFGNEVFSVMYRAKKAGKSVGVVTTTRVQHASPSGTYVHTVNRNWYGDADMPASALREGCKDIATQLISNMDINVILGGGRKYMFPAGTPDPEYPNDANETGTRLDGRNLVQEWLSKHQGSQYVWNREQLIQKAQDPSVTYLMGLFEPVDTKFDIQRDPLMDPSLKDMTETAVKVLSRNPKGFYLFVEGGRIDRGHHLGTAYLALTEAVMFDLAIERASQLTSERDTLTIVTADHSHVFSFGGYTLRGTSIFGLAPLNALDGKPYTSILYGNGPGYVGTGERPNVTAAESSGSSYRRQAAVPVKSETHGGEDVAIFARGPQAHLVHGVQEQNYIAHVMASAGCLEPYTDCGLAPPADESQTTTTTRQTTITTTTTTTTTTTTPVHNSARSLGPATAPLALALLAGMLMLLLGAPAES
Sequence of Intestinal-type alkaline phosphatase (Homo sapiens, UniProt P09923) (P09923 whole entry): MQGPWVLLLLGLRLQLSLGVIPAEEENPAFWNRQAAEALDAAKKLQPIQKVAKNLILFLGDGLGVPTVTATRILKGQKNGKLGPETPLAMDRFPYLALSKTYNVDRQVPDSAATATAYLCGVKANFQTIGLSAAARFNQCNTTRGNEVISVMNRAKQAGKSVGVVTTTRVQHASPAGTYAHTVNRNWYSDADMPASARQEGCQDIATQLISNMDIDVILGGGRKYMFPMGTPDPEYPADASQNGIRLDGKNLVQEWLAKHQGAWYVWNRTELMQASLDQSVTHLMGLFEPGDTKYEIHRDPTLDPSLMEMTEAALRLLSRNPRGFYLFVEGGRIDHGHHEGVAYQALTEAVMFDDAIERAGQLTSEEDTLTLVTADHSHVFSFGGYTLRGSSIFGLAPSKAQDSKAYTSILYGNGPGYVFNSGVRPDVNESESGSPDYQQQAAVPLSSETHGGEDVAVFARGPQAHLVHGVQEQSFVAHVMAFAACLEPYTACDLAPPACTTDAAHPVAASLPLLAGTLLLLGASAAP
T1 sequence (P08684 whole entry): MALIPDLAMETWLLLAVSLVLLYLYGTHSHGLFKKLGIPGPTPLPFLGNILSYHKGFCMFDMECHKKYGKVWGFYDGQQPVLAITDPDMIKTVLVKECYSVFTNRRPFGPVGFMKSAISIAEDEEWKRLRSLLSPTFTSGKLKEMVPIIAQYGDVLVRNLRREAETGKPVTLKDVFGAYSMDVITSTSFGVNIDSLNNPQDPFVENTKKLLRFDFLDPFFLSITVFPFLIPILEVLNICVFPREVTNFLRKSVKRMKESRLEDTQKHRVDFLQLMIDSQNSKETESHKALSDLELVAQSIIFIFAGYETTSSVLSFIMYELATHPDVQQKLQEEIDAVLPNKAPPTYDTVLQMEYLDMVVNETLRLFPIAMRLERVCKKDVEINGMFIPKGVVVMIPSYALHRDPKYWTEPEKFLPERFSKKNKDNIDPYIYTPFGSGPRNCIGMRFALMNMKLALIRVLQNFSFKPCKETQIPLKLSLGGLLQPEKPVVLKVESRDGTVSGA
Sequence of Cytochrome P450 2C19 (P33261 whole entry): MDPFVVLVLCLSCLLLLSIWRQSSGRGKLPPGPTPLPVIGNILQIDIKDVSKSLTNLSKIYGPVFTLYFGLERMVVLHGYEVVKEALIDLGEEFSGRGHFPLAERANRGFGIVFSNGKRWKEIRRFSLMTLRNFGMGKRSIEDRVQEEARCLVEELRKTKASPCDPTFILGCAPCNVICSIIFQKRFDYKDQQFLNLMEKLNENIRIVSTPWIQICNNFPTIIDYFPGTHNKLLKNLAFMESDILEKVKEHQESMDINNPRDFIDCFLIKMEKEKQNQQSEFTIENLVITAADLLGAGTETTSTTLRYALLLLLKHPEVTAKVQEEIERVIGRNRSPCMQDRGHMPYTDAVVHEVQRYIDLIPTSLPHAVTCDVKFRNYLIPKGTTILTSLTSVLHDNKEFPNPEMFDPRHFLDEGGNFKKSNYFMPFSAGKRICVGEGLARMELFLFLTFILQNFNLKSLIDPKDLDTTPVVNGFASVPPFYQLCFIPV
Sequence of Eukaryotic translation initiation factor 4E (P63073 whole entry): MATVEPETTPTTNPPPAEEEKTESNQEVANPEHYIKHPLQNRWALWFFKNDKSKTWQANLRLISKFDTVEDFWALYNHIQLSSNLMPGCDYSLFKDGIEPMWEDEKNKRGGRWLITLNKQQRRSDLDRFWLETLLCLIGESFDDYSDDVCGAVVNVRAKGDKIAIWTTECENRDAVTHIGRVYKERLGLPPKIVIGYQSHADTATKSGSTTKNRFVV
Sequence of Cytochrome P450 2D6 (P10635 whole entry): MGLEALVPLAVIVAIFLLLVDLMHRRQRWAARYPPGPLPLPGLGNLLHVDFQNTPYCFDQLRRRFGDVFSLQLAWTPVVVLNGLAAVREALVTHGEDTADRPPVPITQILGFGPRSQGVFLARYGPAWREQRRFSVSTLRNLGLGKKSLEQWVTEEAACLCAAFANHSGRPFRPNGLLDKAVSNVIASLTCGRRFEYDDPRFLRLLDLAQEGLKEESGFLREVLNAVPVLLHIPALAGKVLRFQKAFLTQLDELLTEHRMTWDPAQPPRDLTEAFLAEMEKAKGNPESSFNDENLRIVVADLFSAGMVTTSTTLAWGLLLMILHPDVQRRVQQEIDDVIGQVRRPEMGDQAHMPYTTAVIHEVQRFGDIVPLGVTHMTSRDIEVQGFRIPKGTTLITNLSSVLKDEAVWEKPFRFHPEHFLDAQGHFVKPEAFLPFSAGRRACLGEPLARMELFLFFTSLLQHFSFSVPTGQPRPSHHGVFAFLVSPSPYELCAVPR
Sequence of Neurotensin receptor type 1 (P30989 whole entry): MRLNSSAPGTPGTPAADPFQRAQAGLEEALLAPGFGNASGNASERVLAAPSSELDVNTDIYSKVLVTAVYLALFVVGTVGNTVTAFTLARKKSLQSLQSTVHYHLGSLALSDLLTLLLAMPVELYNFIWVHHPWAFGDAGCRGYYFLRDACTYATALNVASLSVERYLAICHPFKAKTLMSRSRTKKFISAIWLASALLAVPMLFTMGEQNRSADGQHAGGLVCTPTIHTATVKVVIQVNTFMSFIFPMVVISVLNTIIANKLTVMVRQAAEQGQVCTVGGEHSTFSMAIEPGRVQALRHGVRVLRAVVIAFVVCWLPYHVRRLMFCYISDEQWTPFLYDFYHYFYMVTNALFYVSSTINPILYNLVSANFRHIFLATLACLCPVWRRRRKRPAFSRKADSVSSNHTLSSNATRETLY

Sc1ncnc2scc(-c3ccc(Br)cc3)c12
CC50 [1]: 25.9 µM (active) | IC50 [2]: > 100 µM (active)

CC(C)CN1CCc2nc(-c3ccccc3)c3c(c2C1)COC(C)C3 (stereo unspecified)
AC50 [3]: 3.16 µM (inconclusive) | AC50 [4]: 3.16 µM (inconclusive)

CC(C)C(=O)N1CCN(c2ccc(NC(=O)c3ccc4c(c3)OCCO4)cc2Cl)CC1
EC50 [5]: 18.5 µM (active) | AC50 [6]: 16 µM (active) | AC50 [7]: 22.6 µM (active) | EC50 [8]: 9.21 µM (active) | EC50 [9]: 9.2 µM (active) | AC50 [10]: 19.1 µM (active) | IC50 [2]: > 100 µM (active) | AC50 [11]: 17.7 µM (active) | AC50 [12]: 10.7 µM (active)

CCC(C)(C(=O)NC1CCCC1)N(Cc1ccco1)C(=O)Cc1cccs1 (stereo unspecified)
IC50 [13]: > 35 µM (not active) | IC50 [14]: > 35 µM (not active)

N#Cc1c(SCC(=O)Nc2nncs2)sc2c(O)cc(=O)[nH]c12
IC50 [15]: 25.3 µM (not active) | AC50 [16]: 6.29 µM (active) | IC50 [17]: 96.5 µM (not active) | IC50 [18]: 2.3 µM (active) | IC50 [19]: > 100 µM (inactive) | IC50 [20]: > 100 µM (inactive) | AC50 [21]: 4.58 µM (active)

CCN(C(=O)C(C)N1C(=O)/C(=C/c2ccco2)SC1=S)C1CCS(=O)(=O)C1 (stereo unspecified)
IC50 [15]: > 12.1 µM (not active) | IC50 [17]: > 109 µM (not active) | IC50 [18]: 0.419 µM (active) | IC50 [19]: 3.79 µM (active) | IC50 [20]: 11.1 µM (active)

O=C(/C=C/c1ccco1)N(c1ccccn1)c1ccccn1
IC50 [15]: 19.8 µM (not active) | IC50 [22]: 3.29 µM (active) | IC50 [17]: > 109 µM (not active) | IC50 [23]: 50 µM (inactive)

Cc1ccc(NC(=S)c2nc3ccccc3s2)cc1
AC50 [24]: 0.0251 µM (inconclusive) | IC50 [25]: > 100 µM (inactive) | AC50 [26]: 10 µM (inconclusive) | AC50 [27]: 22.4 µM (inconclusive) | EC50 [28]: 0.46 µM (active)

CC(C)(C)NCc1cc(Br)ccc1OC1CCCC1
IC50 [13]: 7.43 µM (active) | IC50 [14]: 11.2 µM (not active)

CCOC(=O)C1(CCCc2ccccc2)CCN(C2CCSCC2)CC1
IC50 [13]: 16.7 µM (not active) | IC50 [14]: > 35 µM (not active)

N#Cc1ccc(/C=C/C(=O)c2ccc3c(c2)OCO3)cc1
IC50 [2]: > 100 µM (active)
